Test results as given in US20260250318A1, “COMPOSITIONS AND METHODS FOR CROSSING THE BLOOD BRAIN BARRIER” (VOYAGER THERAPEUTICS, INC., priority 2022, published 2026).

Columns and labels:
[1] = system: brains, heart, liver, muscle, and DRG of the NHPs; test: Maturation of TTM-001 and TTM-002 capsids, NGS enrichment in NHP tissues; type: in vivo; details: relative to AAV9 control
Summary of the method: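 Variants carry mutations within and flanking the loop IV peptide insert: positions 450–466 were triplet-randomized, while positions 449–466 received low-frequency point mutations. The combined pool went into two NHPs, and each peptide was scored by NGS enrichment ratio against AAV9.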

[2] = system: brain; test: Matured TTM-001 and TTM-002 variants, NGS enrichment in mouse brain; type: in vivo, mice; details: relative to AAV9 control
[3] = NGS fold-enrichment, DRG of NHPs
[4] = NGS fold-enrichment, RNA, brain of NHPs
[5] = NGS fold-enrichment, heart of NHPs
[6] = NGS fold-enrichment, liver DNA of NHPs
[7] = NGS fold-enrichment, liver RNA of NHPs
[8] = NGS fold-enrichment, muscle of NHPs
[9] = NGS fold-enrichment, brain of mice
[10] = NGS fold-enrichment of RNA, NHP brain
[11] = NGS fold-enrichment, NHP liver DNA
[12] = NGS fold-enrichment, NHP liver RNA
[13] = NGS fold-enrichment, NHP muscle
[14] = NGS fold-enrichment, mouse brain
[15] = NGS fold-enrichment of matured AAV capsid variants, NHP brain, RNA

Sequence	Fold Enrichment relative to AAV9, DRG (NHP) [1, 3]	Fold Enrichment relative to AAV9, Brain (NHP) [1, 4]	Fold Enrichment relative to AAV9, Heart (NHP) [1, 5]	Fold Enrichment relative to AAV9, Liver DNA (NHP) [1, 6]	Fold Enrichment relative to AAV9, Liver RNA (NHP) [1, 7]	Fold Enrichment relative to AAV9, Muscle (NHP) [1, 8]	Fold Enrichment relative to AAV9, Brain (Mouse) [2, 9]	Fold Enrichment relative to AAV9, Brain (NHP) [1, 10]	Fold Enrichment relative to AAV9, DRG (NHP) ([1]; NGS fold-enrichment, NHP DRG)	Fold Enrichment relative to AAV9, Heart (NHP) ([1]; NGS fold-enrichment, NHP heart)	Fold Enrichment relative to AAV9, Liver DNA (NHP) [1, 11]	Fold Enrichment relative to AAV9, Liver RNA (NHP) [1, 12]	Fold Enrichment relative to AAV9, Muscle (NHP) [1, 13]	Fold Enrichment relative to AAV9, Brain (Mouse) [2, 14]	other results
KTVNGSGSPHSKAQNLQA	0.000 fold	66.379 fold	0.000 fold	0.132 fold	0.000 fold	0.000 fold	50.934 fold								
KTVNGSGSPHSKAQNQLI	0.000 fold	80.509 fold	0.000 fold	0.166 fold	0.000 fold	0.000 fold	71.156 fold	80.509 fold	0.000 fold	0.000 fold	0.166 fold	0.000 fold	0.000 fold	71.156 fold	
KTVNGSGSPHSKAQNQWT															Fold Enrichment relative to AAV9, Brain (NHP) [1, 15]: 56.823 fold; Fold Enrichment relative to AAV9, DRG (NHP) ([1]; NHP DRG): 0.000 fold; Fold Enrichment relative to AAV9, Heart (NHP) ([1]; NHP heart): 0.000 fold; Fold Enrichment relative to AAV9, Liver DNA (NHP) ([1]; NHP liver, DNA): 0.219 fold; Fold Enrichment relative to AAV9, Liver RNA (NHP) ([1]; NHP liver, RNA): 0.000 fold; Fold Enrichment relative to AAV9, Muscle (NHP) ([1]; NHP muscle): 0.299 fold; Fold Enrichment relative to AAV9, Brain (Mouse) ([2]; mouse brain): 69.906 fold
KTVNGSGSPHSKAQSLQT															Fold Enrichment relative to AAV9, Brain (NHP) [1, 15]: 55.497 fold; Fold Enrichment relative to AAV9, DRG (NHP) ([1]; NHP DRG): 0.000 fold; Fold Enrichment relative to AAV9, Heart (NHP) ([1]; NHP heart): 0.060 fold; Fold Enrichment relative to AAV9, Liver DNA (NHP) ([1]; NHP liver, DNA): 0.143 fold; Fold Enrichment relative to AAV9, Liver RNA (NHP) ([1]; NHP liver, RNA): 0.000 fold; Fold Enrichment relative to AAV9, Muscle (NHP) ([1]; NHP muscle): 0.000 fold; Fold Enrichment relative to AAV9, Brain (Mouse) ([2]; mouse brain): 69.033 fold
KTVNGSGSPHSKAQYQHT	0.000 fold	72.847 fold	0.000 fold	0.130 fold	0.000 fold	0.000 fold	54.158 fold								
KTVNGSGSPHSKARDQQT	0.123 fold	124.789 fold	0.039 fold	0.454 fold	0.569 fold	0.312 fold	132.137 fold	124.789 fold	0.123 fold	0.039 fold	0.454 fold	0.569 fold	0.312 fold	132.137 fold	
KTVNGSGSPHSKSQNQLT	0.000 fold	101.327 fold	0.035 fold	0.025 fold	0.000 fold	0.000 fold	80.716 fold	101.327 fold	0.000 fold	0.035 fold	0.025 fold	0.000 fold	0.000 fold	80.716 fold	
KTVNGSGSPHSKSQNQQT															Fold Enrichment relative to AAV9, Brain (NHP) [1, 15]: 52.395 fold; Fold Enrichment relative to AAV9, DRG (NHP) ([1]; NHP DRG): 0.033 fold; Fold Enrichment relative to AAV9, Heart (NHP) ([1]; NHP heart): 0.077 fold; Fold Enrichment relative to AAV9, Liver DNA (NHP) ([1]; NHP liver, DNA): 0.175 fold; Fold Enrichment relative to AAV9, Liver RNA (NHP) ([1]; NHP liver, RNA): 0.105 fold; Fold Enrichment relative to AAV9, Muscle (NHP) ([1]; NHP muscle): 0.013 fold; Fold Enrichment relative to AAV9, Brain (Mouse) ([2]; mouse brain): 58.000 fold
KTVNGSGSPHSKTQSQQT	0.000 fold	115.086 fold	0.726 fold	0.340 fold	0.000 fold	0.000 fold	63.248 fold	115.086 fold	0.000 fold	0.726 fold	0.340 fold	0.000 fold	0.000 fold	63.248 fold	
KTVNRNGSPHSKAQNQQT	0.000 fold	133.016 fold	0.416 fold	0.000 fold	0.000 fold	0.000 fold	85.361 fold	133.016 fold	0.000 fold	0.416 fold	0.000 fold	0.000 fold	0.000 fold	85.361 fold	
KTVPNSGSPHSKAQNQQT	0.000 fold	62.540 fold	0.000 fold	0.161 fold	0.202 fold	0.011 fold	93.793 fold								
KTVPTSGSPHSKAQNQQT															Fold Enrichment relative to AAV9, Brain (NHP) [1, 15]: 51.348 fold; Fold Enrichment relative to AAV9, DRG (NHP) ([1]; NHP DRG): 0.013 fold; Fold Enrichment relative to AAV9, Heart (NHP) ([1]; NHP heart): 0.000 fold; Fold Enrichment relative to AAV9, Liver DNA (NHP) ([1]; NHP liver, DNA): 0.338 fold; Fold Enrichment relative to AAV9, Liver RNA (NHP) ([1]; NHP liver, RNA): 1.017 fold; Fold Enrichment relative to AAV9, Muscle (NHP) ([1]; NHP muscle): 0.000 fold; Fold Enrichment relative to AAV9, Brain (Mouse) ([2]; mouse brain): 102.651 fold
KTVRDSGSPHSKAQNQQT	0.000 fold	66.056 fold	0.025 fold	0.461 fold	0.129 fold	0.000 fold	142.600 fold								
KTWQNSGSPHSKAQNQQT															Fold Enrichment relative to AAV9, Brain (NHP) [1, 15]: 55.245 fold; Fold Enrichment relative to AAV9, DRG (NHP) ([1]; NHP DRG): 0.000 fold; Fold Enrichment relative to AAV9, Heart (NHP) ([1]; NHP heart): 0.000 fold; Fold Enrichment relative to AAV9, Liver DNA (NHP) ([1]; NHP liver, DNA): 0.265 fold; Fold Enrichment relative to AAV9, Liver RNA (NHP) ([1]; NHP liver, RNA): 0.111 fold; Fold Enrichment relative to AAV9, Muscle (NHP) ([1]; NHP muscle): 0.000 fold; Fold Enrichment relative to AAV9, Brain (Mouse) ([2]; mouse brain): 114.258 fold
KVINGHDSPHKSGQTQQT (peptide inserted in AAV capsid)								91.665 fold	0.000 fold	0.055 fold	0.000 fold	0.311 fold	1.526 fold	7.391 fold	
KVINGSGSPHSKGQNQQT (peptide inserted in AAV capsid)	0.000 fold	60.001 fold	0.000 fold	0.157 fold	0.264 fold	0.031 fold	68.532 fold								
NTINGSGSPHSKAQNQQT (peptide inserted in AAV capsid)	1.712 fold	90.017 fold	1.261 fold	0.540 fold	0.923 fold	1.171 fold	55.179 fold	90.017 fold	1.712 fold	1.261 fold	0.540 fold	0.923 fold	1.171 fold	55.179 fold	
